Test results taken from PMC6269946, “Anti-Plasmodial Activity of Some Zulu Medicinal Plants and of Some Triterpenes Isolated from Them” (Molecules, 2013).
≈ marks a conversion by molar mass, not a printed value. Where two headings read alike, the source gives them in different places.

Assays:
[1] = test system: chloroquine sensitive (CQS) strain of Plasmodium falciparum (D10); experiment: In vitro antiplasmodial activity, parasite lactate dehydrogenase assay; type: cell-based; details: for IC50: Plasmodium falciparum
Method: The test samples (crude extracts, isolates, and chemical derivatives) were tested in triplicate against a chloroquine sensitive (CQS) strain of Plasmodium falciparum (D10). Continuous in vitro cultures of asexual erythrocyte stages of P. falciparum were maintained using modified method of Trager and Jensen. Quantitative assessment of anti-plasmodial activity in vitro was determined via the parasite lactate dehydrogenase assay using a modified method described by Makler. The test samples were prepared to a 20 mg/mL stock solution in 100% DMSO and sonicated to enhance solubility. Stock solutions were stored at −20 °C. Further dilutions were prepared on the day of the experiment. Chloroquine and artesunate were used as the reference drugs for experiments. A full dose-response was performed for all active compounds to determine the concentration inhibiting 50% of parasite growth (IC50-value). Test samples were tested at a starting concentration of 100 μg/mL, which was then serially diluted 2-fold in complete medium to give 10 preparations of variable concentrations; with the lowest concentration being 0.2 μg/mL. The same dilution technique was used for all samples. CQ was tested at a starting concentration of 1,000 ng/mL. The highest concentration of solvent to which the parasite-infected erythrocytes were exposed to had no measurable effect on the parasite viability (data not shown). The IC50-values were obtained using a non-linear dose-response curve fitting analysis via Graph Pad Prism v.4.0 software (Graph Pad Prism, Inc: San Diego, CA, USA, 1994–2003).

[2] = test system: Plasmodium berghei; experiment: In vivo antiplasmodial activity, four-day suppressive test in infected mice; design: species or system Swiss mice; details: P. berghei infected mice, oral for four consecutive days, smears on day five; chloroquine 5 mg/kg/day; dose not given (50-400 mg/kg/day groups)
Method: This study was carried out after the approval from the Ethical Committee on Animal Use and Care of the University of Zululand (UZREC 171110-030 PGD 2013/26). Swiss mice (20-25 g each) of both sexes were obtained from biomedical research unit (BRU) in the University of […], Durban. They were kept in plastic cages, and given standard laboratory diet and water ad libitum and maintained under laboratory conditions of temperature and 12 h light and 12 h dark cycle. The animals were allowed to acclimatize to the laboratory at a controlled temperature of 22 °C for 15 days before being subjected to the experiments. The animals were divided into seven groups (eight in each group) consisting of control, chloroquine (5 mg/kg/day), and the extract treated group. The extract treated group was sub divided into five sub groups that received 50, 100, 200, 300 and 400 mg/kg/day body weight respectively. A single donor mouse infected with Plasmodium berghei parasites was bled into sterile heparinized culture medium and the blood was diluted with RPMI 1640 medium. The healthy experimental mice were infected intravenously via a tail vein with 0.2 mL of the diluted blood containing 1 × 10^7 parasitized (Plasmodium berghei) red blood cells on day one. The antimalarial activity tests were performed using the four-day suppressive tests described by Peters et al.. The extracts dissolved in 0.5% carboxymethyl cellulose (CMC) were administered orally using cannula (equivalent to 0.2 mL solution per mouse) for four consecutive days. […] The percent parasitemia suppression was determined by counting the number of parasitized erythrocytes out of 500 red blood cells on random fields under the microscope. The average percentage suppression of parasitemia was calculated using the following formula: % suppression = A - B/C (1) where A = % parasitemia in untreated controls, B = % parasitemia in treated groups, and C = % parasitemia in untreated controls. The data were analyzed using the F-test.

[3] = P. falciparum CQS D10 strain, in vitro, pLDH assay, triplicate, starting concentration 100 μg/mL, read-out: IC50 (anti-plasmodial activity, concentration inhibiting 50% of parasite growth)

With `C[C@H]1[C@H](C)CC[C@]2(C(=O)O)CC[C@]3(C)C(=CC[C@@H]4[C@@]5(C)CCC(=O)C(C)(C)[C@@H]5CC[C@]43C)[C@H]12` [3-oxo-ursolic acid] the IC50 [1, 3] was 7.3 mg/L (≈ 16.1 µM).

`C[C@H]1[C@H](OC(=O)CCC(=O)O)O[C@@H]2O[C@@]3(C)CC[C@H]4[C@H](C)CC[C@@H]1[C@@]24OO3` [Artesunate, reference compound] gave an IC50 ([1]; P. falciparum CQS D10 strain, in vitro, pLDH assay, values marked * = ng/mL, read-out: IC50 (anti-plasmodial activity), reference drugs) of 0.0051 mg/L (≈ 0.0133 µM).

With `CCN(CC)CCCC(C)Nc1ccnc2cc(Cl)ccc12` (centres unmarked) [Chloroquine, reference compound] the “Average % suppression (of parasitemia)” value [2] was 83.43% and the IC50 ([1]; D10, read-out: IC50 (anti-plasmodial activity), reference drugs) was 0.0141 mg/L (≈ 0.0441 µM).

In the case of `CO[C@H]1CC[C@@]2(C)C(CC[C@@]3(C)C4=CC[C@@]5(C)CCC(C)(C)CC5[C@]4(C)CCC23)C1(C)C` (some centres unmarked) [Sawamilletin, sawamilletin], the IC50 [1, 3] is reported as over 100 mg/L.

For `CC1(C)CC[C@]2(C)CC=C3[C@]4(C)CC[C@H]5C(C)(C)[C@@H](O)CC[C@]5(C)[C@H]4CC[C@@]3(C)[C@@H]2C1` [Taraxerol, taraxerol], the IC50 [1, 3] was over 100 mg/L.

`CC(=O)O[C@H]1CC[C@]2(C)[C@H]3CC=C4[C@@H]5[C@@H](C)[C@H](C)CC[C@]5(C(=O)O)CC[C@@]4(C)[C@]3(C)CC[C@H]2C1(C)C` [Ursolic acid acetate, 3β-acetylursolic acid] was tested, and the Average % parasitemia [2] was 0.07%, the “Average % suppression (of parasitemia)” value [2] was 94.01% and the IC50 [1, 3] was 1.9 mg/L. For the same compound, the “Increase in the in vitro anti-malarial activity relative to ursolic acid” value ([1]; acetate derivative versus ursolic acid, P. falciparum D10) was 72%.

`C[C@H]1[C@H](C)CC[C@]2(C(=O)O)CC[C@]3(C)C(=CC[C@@H]4[C@@]5(C)CC[C@H](O)C(C)(C)[C@@H]5CC[C@]43C)[C@H]12` [Ursolic acid, ursolic acid] gave an IC50 [1, 3] of 6.8 mg/L (≈ 14.9 µM).
